From paper PMC5218480 (PLoS ONE, 2017) come the findings set out here.

In the assay the test system is MV-4-11 cells. In words: Gene expression microarray analysis (Affymetrix PrimeView) and GSEA. The assay is classed as cell-based, human. The conditions noted are these: gene FGFR1OP, FGFR1 oncogene partner; Azacitidine 1 mM; LIST F.

With `Nc1ncn([C@@H]2O[C@H](CO)[C@@H](O)[C@H]2O)c(=O)n1` [azacitidine], the “RFU, FGFR1OP (ProbeSet 11751329_s_at)” value is 410.33 RFU.
